# Laboratory results published in patent publication US9758492B2, “IDO inhibitors” (Bristol-Myers Squibb Company, priority 2013, dated 2017).
# pIC50: −log10 of the molar value.
# Target: IDO (Homo sapiens, UniProt P14902)
# Assay: LLE_IDO_ABS_DR (IDO assay)
# IDO, sequence (P14902 whole entry): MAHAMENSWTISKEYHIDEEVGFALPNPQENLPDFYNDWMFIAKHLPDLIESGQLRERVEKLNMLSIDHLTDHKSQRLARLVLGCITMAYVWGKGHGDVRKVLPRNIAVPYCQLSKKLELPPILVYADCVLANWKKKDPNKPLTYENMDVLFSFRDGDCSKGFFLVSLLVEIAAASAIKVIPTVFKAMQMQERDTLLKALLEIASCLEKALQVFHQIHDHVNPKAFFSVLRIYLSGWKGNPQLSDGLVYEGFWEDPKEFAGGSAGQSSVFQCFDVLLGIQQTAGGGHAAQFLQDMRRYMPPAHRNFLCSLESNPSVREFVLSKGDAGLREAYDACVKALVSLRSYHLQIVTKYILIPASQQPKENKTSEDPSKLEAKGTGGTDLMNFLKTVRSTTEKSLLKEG
row,SMILES,pIC50
1,"CC(C)CN(CC(C)C)c1ccc(-c2ccccc2-c2nnn[nH]2)cc1NC(=O)Nc1cccc(-n2ccnc2)c1 [Example 267, 1-(3-(1H-imidazol-1-yl)phenyl)-3-(4-(diisobutylamino)-2′-(1H-tetrazol-5-yl)-[1,1′-biphenyl]-3-yl)urea]",5.84
2,"CC(C)CN(CC(C)C)c1ccc(-c2ccccc2-c2nnn[nH]2)cc1NC(=O)NCC1CCCCC1 [Example 268, 1-(cyclohexylmethyl)-3-(4-(diisobutylamino)-2′-(1H-tetrazol-5-yl)-[1,1′-biphenyl]-3-yl)urea]",6.08
3,"C#CCOc1ccccc1NC(=O)Nc1cc(-c2ccccc2-c2nnn[nH]2)ccc1N(CC(C)C)CC(C)C [Example 269, 1-(4-(diisobutylamino)-2′-(2H-tetrazol-5-yl)-[1,1′-biphenyl]-3-yl)-3-(2-(prop-2-yn-1-yloxy)phenyl)urea]",6.60
4,"CC(C)CN(CC(C)C)c1ccc(-c2ccccc2-c2nnn[nH]2)cc1NC(=O)Nc1ccccc1N1CCCCC1 [Example 270, 2-(4-(diisobutylamino)-2′-(1H-tetrazol-5-yl)-[1,1′-biphenyl]-3-yl)-3-(2-(piperidin-1-yl)phenyl)urea]",5.74
5,"CC(C)CN(CC(C)C)c1ccc(-c2ccccc2-c2nnn[nH]2)cc1NC(=O)Nc1ccc(F)c(C(F)(F)F)c1 [Example 271, 1-(4-(diisobutylamino)-2′-(1H-tetrazol-5-yl)-[1,1′-biphenyl]-3-yl)-3-(4-fluoro-3-(trifluoromethyl)phenyl) urea]",6.00
6,"CC(C)CN(CC(C)C)c1ccc(-c2ccccc2-c2nnn[nH]2)cc1NC(=O)Nc1ccc(F)cc1OC(C)C [Example 272, 1-(4-(diisobutylamino)-2′-(1H-tetrazol-5-yl)-[1,1′-biphenyl]-3-yl)-3-(4-fluoro-2-isopropoxyphenyl)urea]",5.57
7,"CC(C)CN(CC(C)C)c1ccc(-c2ccccc2-c2nnn[nH]2)cc1NC(=O)Nc1cccc(OC(F)(F)F)c1 [Example 273, 1-(4-(diisobutylamino)-2′-(1H-tetrazol-5-yl)-[1,1′-biphenyl]-3-yl)-3-(3-(trifluoromethoxy)phenyl)urea]",6.74
8,"CC(C)CN(CC(C)C)c1ccc(-c2ccccc2-c2nnn[nH]2)cc1NC(=O)Nc1ccccc1C1CC1 [Example 274, 1-(2-cyclopropylphenyl)-3-(4-(diisobutylamino)-2′-(1H-tetrazol-5-yl)-[1,1′-biphenyl]-3-yl)urea]",6.34
9,"CC(C)CN(CC(C)C)c1ccc(-c2ccccc2-c2nnn[nH]2)cc1NC(=O)Nc1cccc(F)c1O [Example 275, 1-(4-(diisobutylamino)-2′-(1H-tetrazol-5-yl)-[1,1′-biphenyl]-3-yl)-3-(3-fluoro-2-hydroxyphenyl)urea]",6.30
10,"CC(C)CN(CC(C)C)c1ccc(-c2ccccc2-c2nnn[nH]2)cc1NC(=O)Nc1cccc2c1CCC2 [Example 276, 1-(2,3-dihydro-1H-inden-4-yl)-3-(4-(diisobutylamino)-2′-(1H-tetrazol-5-yl)-[1,1′-biphenyl]-3-yl)urea]",6.11
11,"C#Cc1ccccc1NC(=O)Nc1cc(-c2ccccc2-c2nnn[nH]2)ccc1N(CC(C)C)CC(C)C [Example 277, 1-(4-(diisobutylamino)-2′-(1H-tetrazol-5-yl)-[1,1′-biphenyl]-3-yl)-3-(2-ethynylphenyl)urea]",6.80
12,"C#Cc1ccc(NC(=O)Nc2cc(-c3ccccc3-c3nnn[nH]3)ccc2N(CC(C)C)CC(C)C)cc1 [Example 278, 1-(4-(diisobutylamino)-2′-(1H-tetrazol-5-yl)-[1,1′-biphenyl]-3-yl)-3-(4-ethynylphenyl)urea]",8.88
13,"CC(C)CN(CC(C)C)c1ccc(-c2ccccc2-c2nnn[nH]2)cc1NC(=O)Nc1ccc(F)c(S(C)(=O)=O)c1 [Example 279, 1-(4-(diisobutylamino)-2′-(1H-tetrazol-5-yl)-[1,1′-biphenyl]-3-yl)-3-(4-fluoro-3-(methylsulfonyl)phenyl) urea]",5.30
14,"CC(C)CN(CC(C)C)c1ccc(-c2ccccc2-c2nnn[nH]2)cc1NC(=O)Nc1ccccc1OC(F)F [Example 280, 1-(2-(difluoromethoxy)phenyl)-3-(4-(diisobutylamino)-2′-(1H-tetrazol-5-yl)biphenyl-3-yl)urea]",5.62
15,"COc1ccccc1NC(=O)Nc1cc(-c2ccccc2-c2nnn[nH]2)ccc1N(CC(C)C)CC(C)C [Example 281, 1-(4-(diisobutylamino)-2′-(1H-tetrazol-5-yl)biphenyl-3-yl)-3-(2-methoxyphenyl)urea]",5.84
16,"CC(C)CN(CC(C)C)c1ccc(-c2ccccc2-c2nnn[nH]2)cc1NC(=O)Nc1c(F)cc(F)cc1F [Example 282, 1-(4-(diisobutylamino)-2′-(1H-tetrazol-5-yl)-[1,1′-biphenyl]-3-yl)-3-(2,4,6-trifluorophenyl)urea]",8.09
17,"CC(C)CN(CC(C)C)c1ccc(-c2ccccc2-c2nn[nH]n2)cc1NC(=O)Nc1c(F)cccc1F [Example 283, 1-(2,6-difluorophenyl)-3-(4-(diisobutylamino)-2′-(2H-tetrazol-5-yl)-[1,1′-biphenyl]-3-yl)urea]",8.00

row,SMILES,pIC50
1,"CC(C)CN(CC(C)C)c1ccc(-c2ccccc2-c2nnn[nH]2)cc1NC(=O)Nc1ccc(S(C)(=O)=O)cc1F [Example 284, 1-(4-(diisobutylamino)-2′-(1H-tetrazol-5-yl)-[1,1′-biphenyl]-3-yl)-3-(2-fluoro-4-(methylsulfonyl)phenyl)urea]",5.68
2,"CC(C)CN(CC(C)C)c1ccc(-c2ccccc2-c2nnn[nH]2)cc1NC(=O)Nc1ccc(N=[N+]=[N-])cc1 [Example 285, 1-(4-azidophenyl)-3-(4-(diisobutylamino)-2′-(1H-tetrazol-5-yl)-[1,1′-biphenyl]-3-yl)urea]",8.64
3,"CC(C)CN(CC(C)C)c1ccc(-c2ccccc2-c2nnn[nH]2)cc1NC(=O)Nc1ccc(F)c(Cl)c1 [Example 286, 1-(3-chloro-4-fluorophenyl)-3-(4-(diisobutylamino)-2′-(1H-tetrazol-5-yl)biphenyl-3-yl)urea]",6.96
4,"Cc1ccc(NC(=O)Nc2cc(-c3ccccc3-c3nnn[nH]3)ccc2N(CC(C)C)CC(C)C)cc1F [Example 287, 1-(4-(diisobutylamino)-2′-(1H-tetrazol-5-yl)-[1,1′-biphenyl]-3-yl)-3-(3-fluoro-4-methylphenyl)urea]",8.35
5,"CC(C)CN(CC(C)C)c1ccc(-c2ccccc2-c2nnn[nH]2)cc1NC(=O)NC(C)(C)CC(C)(C)C [Example 288, 1-(4-(Diisobutylamino)-2′-(1H-tetrazol-5-yl)-[1,1′-biphenyl]-3-yl)-3-(2,4,4-trimethylpentan-2-yl)urea]",5.04
6,"Cc1ccc(NC(=O)Nc2cc(-c3ccccc3-c3nnn[nH]3)ccc2N(Cc2ccccc2)CC(C)C)cc1 [Example 289, 1-(4-(Benzyl(isobutyl)amino)-2′-(1H-tetrazol-5-yl)-[1,1′-biphenyl]-3-yl)-3-(p-tolyl)urea]",5.92
7,"Cc1ccc(NC(=O)Nc2cc(-c3ccccc3-c3nnn[nH]3)ccc2N(Cc2ccccc2)CC(C)C)cc1 [Example 292, 1-(4-(benzyl(isobutyl)amino)-2′-(1H-tetrazol-5-yl)-[1,1′-biphenyl]-3-yl)-3-(p-tolyl)urea]",8.39
8,"O=C(Nc1cc(-c2ccccc2-c2nnn[nH]2)ccc1N(CCc1ccccc1)CCC(F)(F)F)Nc1ccccc1C(F)(F)F [Example 295, 1-(4-(Phenethyl(3,3,3-trifluoropropyl)amino)-2′-(1H-tetrazol-5-yl)biphenyl-3-yl)-3-(2-(trifluoromethyl)phenyl)urea]",6.52
9,"O=C(Nc1ccc(C2CC2)c(F)c1)Nc1cc(-c2ccccc2-c2nnn[nH]2)ccc1N(CCc1ccccc1)CCC(F)(F)F [Example 296, 1-(4-Cyclopropyl-3-fluorophenyl)-3-(4-(phenethyl(3,3,3-trifluoropropyl)amino)-2′-(1H-tetrazol-5-yl)biphenyl-3-yl)urea]",6.74
10,"O=C(Nc1ccc(C2CC2)c(F)c1)Nc1cc(-c2ccccc2-c2nnn[nH]2)ccc1N(CCCC(F)(F)F)Cc1ccc(Cl)cc1 [Example 297, 1-(4-((4-chlorobenzyl)(4,4,4-trifluorobutyl)amino)-2′-(1H-tetrazol-5-yl)-[1,1′-biphenyl]-3-yl)-3-(4-cyclopropyl-3-fluorophenyl)urea]",8.00
11,"O=C(Nc1ccc(C2CC2)cc1)Nc1cc(-c2ccccc2-c2nnn[nH]2)ccc1N(CCc1ccccc1)CCC(F)(F)F [Example 298, 1-(4-cyclopropylphenyl)-3-(4-(phenethyl(3,3,3-trifluoropropyl)amino)-2′-(1H-tetrazol-5-yl)-[1,1′-biphenyl]-3-yl)urea]",7.10
12,"O=C(Nc1ccc(C(F)(F)F)cc1F)Nc1cc(-c2ccccc2-c2nnn[nH]2)ccc1N(CCC(F)(F)F)Cc1ccc(F)cc1C(F)(F)F [Example 300, 1-(4-((4-fluoro-2-(trifluoromethyl)benzyl) (3,3,3-trifluoropropyl)amino)-2′-(1H-tetrazol-5-yl)-[1,1′-biphenyl]-3-yl)-3-(2-fluoro-4-(trifluoromethyl)phenyl)urea]",6.74
13,"O=C(Nc1ccc(C2CC2)cc1)Nc1cc(-c2ccccc2-c2nnn[nH]2)ccc1N(CCC(F)(F)F)Cc1ccccn1 [Example 304, 1-(4-cyclopropylphenyl)-3-(4-((pyridin-2-ylmethyl)(3,3,3-trifluoropropyl)amino)-2′-(1H-tetrazol-5-yl)-[1,1′-biphenyl]-3-yl)urea]",7.15
14,"Cc1ccc(NC(=O)Nc2cc(-c3ccccc3-c3nnn[nH]3)ccc2N2CCC(F)(F)C2)cc1 [Example 315, 1-(4-(3,3-difluoropyrrolidin-1-yl)-2′-(1H-tetrazol-5-yl)-[1,1′-biphenyl]-3-yl)-3-(p-tolyl)urea]",5.11
15,"O=C(Nc1ccc(OC(F)(F)F)cc1)Nc1cc(-c2ccccc2-c2nnn[nH]2)ccc1N1CCC(F)(F)C1 [Example 316, 1-(4-(3,3-difluoropyrrolidin-1-yl)-2′-(1H-tetrazol-5-yl)-[1,1′-biphenyl]-3-yl)-3-(4-(trifluoromethoxy)phenyl)urea]",5.11
16,"O=C(Nc1ccc(OC(F)(F)F)cc1)Nc1cc(-c2ccccc2-c2nnn[nH]2)ccc1N1CC2CC1CN2Cc1ccccc1 (stereo not drawn) [Example 318, 1-(4-(5-benzyl-2,5-diazabicyclo[2.2.1]heptan-2-yl)-2′-(1H-tetrazol-5-yl)-[1,1′-biphenyl]-3-yl)-3-(4-(trifluoromethoxy)phenyl)urea]",6.92
